Consider four substances from US9745345B2, “Anti-tumor polypeptides and method for preparing anti-tumor drugs comprisng the same” (priority 2013, dated 2017).

Assay [1] relates to SGC7901 cells. In words: Western Blot of PARP-1 in SGC7901 cells. The format is cell-based. As to conditions: CPP-1 and ATO combined action group versus other groups. Here is the method:
The combined effect of ATO and polypeptide JWA-6 on the self-destruction of protein expression was also determined A375 cells in the logarithmic phase of growth were conventionally digested and 5×10^5 cells were inoculated evenly in a 60 mm cell culture dish, and different doses of ATO were used to individually treat the cells for 24 hrs, or different doses of ATO in combination with different doses of polypeptide JWA-6 were used to treat the cells for 24 hrs, after which 0.18 mL of RIPA lysis buffer containing 0.5% phenylmethanesulfonyl fluoride (PMSF) was added to extract protein. After centrifugation at 12000×g for 15 minutes, the supernatant was taken, protein concentration was examined. Based on the molecular weight measured, a polyacrylamide gel having a suitable concentration was chosen for protein electrophoresis where each well was added with […] of protein, and the conditions for electrolysis were 60 V, 30 minutes and 90 V, 1-1.5 hrs. After completion of the electrolysis, semi-dry transfer was performed to transfer the protein from the gel onto a polyvinylidene difluoride (PVDF) membrane. After completion of the transfer, the membrane was blocked with 5% skim milk at room temperature for 1-2 hrs. Then, the membrane was washed 3 times (each lasting 5 minutes) using Tris-buffered Saline with Tween (TBST) containing 0.1% Tween-20, and incubation of the corresponding antibody was performed overnight at 4° C. On the next day, membrane was washed 3 times (each lasting 5 minutes) using Tris-buffered Saline with Tween (TBST) containing 0.1% Tween-20; incubation of secondary antibody was performed at room temperature for 1-2 hrs; and again membrane was washed 8 times (each lasting 5 minutes) using Tris-buffered Saline with Tween (TBST) containing 0.1% Tween-20. The membrane was added with enhanced chemiluminescence (ECL) liquid and exposed. […]
Background: Immunoblotting shows a protein as a band on a membrane.

The test system of assay [2] is SGC7901 cells. In words: Annexin V-PE/7-AAD flow cytometry of apoptosis in SGC7901 cells. The class given is cell-based. From the text:
Six groups with different treatment methods directed against SGC7901 cells were designed: blank control group; transfection Flag-control group; transfection Hag-JWA group; transfection Flag-JWA and ATO combined treatment group; ATO treatment group; and polypeptide CPP-1 and ATO combined treatment group. After 24 hrs of treatment for each group, Annexin V-PE/PI flow cytometry was used to examine apoptosis and Western Blot was used to detect the level of PARP-1. […]
In normal cells, phosphatidyl serine (PS) are distributed on the inside of cell membrane lipid bilayer, and at the early stage of apoptosis the phosphatidyl serine (PS) in cell membranes is turned over from the inside of lipid membrane to the outside thereof. […] Annexin V was labeled with fluorescein phycoerythrin (PE); fluorescence microscopy or flow cytometry could be employed to examine apoptosis with the labeled Annexin V used as a fluorescent probe. […] Cells were divided into three group by the fluorescence intensity of 7-AAD labeling DNA: strong fluorescence of 7-AAD indicates dead cells, weak fluorescence of 7-AAD indicates apoptotic cells, and undetectable fluorescence of 7-AAD indicates normal active cells. […]
Background: Flow cytometry measures light scatter and fluorescence of single cells or particles in a stream.

For assay [3], the system named is A375 cells. Put plainly: Cytoactivity of A375 cells treated with ATO alone or with polypeptides in combination with ATO. The class given is cell-based, human. The procedure: Firstly, the dose and time for treatment of A375 cells with ATO were determined. A375 cells in the logarithmic phase of growth were conventionally digested and seeded in a 96-well plate (5×10^3 cells/well), and different doses (5 μM, 10 μM, 25 μM, 50 μM) of ATO were used to treat the cells for 24 hrs and 48 hrs after cell attachment. It was discovered that the activity of A375 cells was reduced by 40% after 24 hrs of treatment with 5 μM ATO (as shown in FIG. 24), and that the cell growth inhibition rate was approximately 100% after 48 hrs of treatment with different doses of ATO (as shown in FIG. 25). Therefore, ATO with a concentration smaller than or equal to 5 μM was chosen to treat the cells for 24 hrs for subsequent reference of dose and time for combined medication.

Assay [4] deals with human melanoma A375 cells. In words: Human melanoma A375 subcutaneous xenograft in NOD/SCID mice, intraperitoneal injection of polypeptides. The class given is in vivo. Particulars: Example 5; 50 mg/kg intraperitoneal, alternate days, 5 times. An excerpt:
The polypeptide designed and synthesized in this example was JWA-6+RGD whose sequence was SEQ ID NO: 7, i.e. 6-aminocaproic acid-FPGSDRF-GGGG-RGD, wherein amino acid S was phosphorylated. In addition, the N-terminus of the polypeptide sequence was acetylated and the C-terminus thereof was amidated during synthesis to prevent rapid degradation of the polypeptide. In this example, non-obese diabetic/severe combined immunodeficiency (NOD/SCID) mice were chosen for tumor-bearing model and the method for dorsal subcutaneous tumor bearing by inoculation of human melanoma A375 cells is the same as Example 2. The mice were randomly divided into four treatment groups after the tumors grew to a volume of about 100 mm^3. […]
Then, 50 mg/kg polypeptide JWA-6, 10 mg/kg polypeptide JWA-6+RGD, 50 mg/kg polypeptide JWA-6+RGD, and 50 mg/kg non-pep (the polypeptide sequence used was the same as Example 3) were injected intraperitoneally. The various groups were administered with injection on alternate days for 5 times consecutively; and the body weight of the mice and their tumor diameters were measured at each administration. After completion of the experiment the mice were sacrificed after anesthesia, tumors were separated from the bodies and the tumor weights measured.
Thereafter, the tumor bearing mice were obtained using the foregoing method of this example and divided into seven injection groups which were intraperitoneally injected with polypeptides JWA-6+RGD, JWA-6+RGD0, JWA-6+RGD1, JWA-6+RGD3, JWA-6+RGD7, JWA-6+RGD10, and non-pep (the polypeptide sequence used was the same as Example 3) at a dose of 50 mg/kg. The various groups were administered by intraperitoneal injection on alternate days for 5 times consecutively; and the body weight of the mice and their tumor diameters were measured at each administration. The day of first administration was taken as the first day, and the experiment was stopped on the twelfth day when the mice were sacrificed after anesthesia, and tumors were separated from the bodies and the tumor weights were measured.

The subject of assay [5] is Mouse Melanoma B16F10 Cells. In words: Cell proliferation with CCK8 reagent, B16F10 cells. As to conditions: 0-50 μM, 24, 48 and 72 hrs, in comparison with the control group. The class given is cell-based. The procedure:
(§1) B16F10 or A375 cells in the logarithmic phase of growth were trypsinized and seeded in a 96-well plate (5×10^3 cells/well), and were treated with different doses (0 μM, 5 μM, 10 μM, 25 μM, 50 μM) of polypeptide JWA-1, JWA-5, JWA-6 or non-pep (the polypeptide sequence used was the same as Example 3) for 24 hrs, 48 hrs and 72 hrs, respectively. The original culture medium was removed from the 96 wells at the indicated time and cell proliferation was determined with CCK8 reagent according to the manufacturer's instructions. Four duplicate samples were taken from each group and the experiments were repeated for three times.
(Formazan colour is commonly taken as a measure of viable cells.)

In assay [6] the test system is A375 cells. In words: Western Blot of apoptosis-related molecules (PARP-1, caspase-3) in A375 cells. As to conditions: JWA-6 in combination with ATO, 24 hrs; compared to untreated group and ATO alone. The format is cell-based, human. The procedure: The combined effect of ATO and polypeptide JWA-6 on the self-destruction of protein expression was also determined A375 cells in the logarithmic phase of growth were conventionally digested and 5×10^5 cells were inoculated evenly in a 60 mm cell culture dish, and different doses of ATO were used to individually treat the cells for 24 hrs, or different doses of ATO in combination with different doses of polypeptide JWA-6 were used to treat the cells for 24 hrs, after which 0.18 mL of RIPA lysis buffer containing 0.5% phenylmethanesulfonyl fluoride (PMSF) was added to extract protein. After centrifugation at 12000×g for 15 minutes, the supernatant was taken, protein concentration was examined. Based on the molecular weight measured, a polyacrylamide gel having a suitable concentration was chosen for protein electrophoresis where each well was added with […] of protein, and the conditions for electrolysis were 60 V, 30 minutes and 90 V, 1-1.5 hrs. After completion of the electrolysis, semi-dry transfer was performed to transfer the protein from the gel onto a polyvinylidene difluoride (PVDF) membrane. After completion of the transfer, the membrane was blocked with 5% skim milk at room temperature for 1-2 hrs. Then, the membrane was washed 3 times (each lasting 5 minutes) using Tris-buffered Saline with Tween (TBST) containing 0.1% Tween-20, and incubation of the corresponding antibody was performed overnight at 4° C. On the next day, membrane was washed 3 times (each lasting 5 minutes) using Tris-buffered Saline with Tween (TBST) containing 0.1% Tween-20; incubation of secondary antibody was performed at room temperature for 1-2 hrs; and again membrane was washed 8 times (each lasting 5 minutes) using Tris-buffered Saline with Tween (TBST) containing 0.1% Tween-20. The membrane was added with enhanced chemiluminescence (ECL) liquid and exposed.
Polypeptide CPP-JWA-6 at a dose of 20 μM, 50 μM was applied individually and applied in combination with ATO (5 μM) on A375 cells (as shown in FIG. 40) and SGC7901 cells (as shown in FIG. 41) for 24 hrs before protein was extracted, and the Western Blot method of Example 7 was used to examine the changes in apoptosis-related molecules.

The subject of assay [7] is Human Melanoma A375 Cells. Put plainly: Cell proliferation with CCK8 reagent, A375 cells. The class given is cell-based. Particulars: 0-50 μM, 24, 48 and 72 hrs, in comparison with the control group. Here is the method:
as §1

For assay [8], the system named is B16 cells. In words: Western Blot of PARP-1 in B16 cells. The format is cell-based. As to conditions: JWA-6 in combination with ATO, 24 hrs.
Assay [9] deals with SGC7901 gastric cancer cell. In words: Fluorescence of FITC-modified cell-penetrating peptides after entry into SGC7901 cells. The format is cell-based. Particulars: 20 μM, 3 hrs. From the text:
To enable JWA functional polypeptides to effectively penetrate into tumor cells, four typical CPPs: R9, TAT, pep-1, 2K (see Table 3), and a blank control having only JWA-1 were selected, the cell-penetrating peptide (CPP) with the highest cell-penetrating effect, its optimal action concentration and optimal action time were selected from the cell model.
To facilitate the use of fluorescence microscopy to directly observe whether polypeptides have the ability to enter cells, the N-terminuses of the aforementioned sequences and JWA-1 were modified with fluorescein isothiocyanate (FITC) and the C-terminuses thereof were amidated.

Square brackets hold non-standard residues; d marks the D form. Ends that are not written are not given here. pS = N[C@@H](COP(=O)(O)O)C(=O)O; Ahx = NCCCCCC(=O)O

Consider “6-aminocaproic acid-(R)9-FFPGSDRFA ([Ahx]RRRRRRRRRFFPG[pS]DRFA) [CPP-1]”, for which, in assay [1], the “expression of PARP-1 spliceosome” value is listed as “higher than those of other groups”. In assay [2] (20 μM polypeptide 3 hrs, then 5 μM ATO 24 hrs (combined action group)), the apoptosis rate is listed as 55.76%.
With “6-aminocaproic acid-FPGSDRF ([Ahx]FPG[pS]DRF) [JWA-6]”, the “cytoactivity of A375 cells, combined use with ATO” value in assay [3] (polypeptide 50-500 μM in combination with ATO 0.5-5 μM, 24 and 48 hrs) was “obvious toxicity”. Moreover, the tumor inhibition effect entry in assay [4] is listed as “a certain degree of tumor inhibition effect”. The “inhibition effect on B16F10 cells” value in assay [5] is “no inhibition effect”. Moreover, in assay [6], the “cleaved PARP-1” value was “significantly increased” and the “cleaved caspase-3” value is “significantly increased”. For the same substance, the “inhibition effect on A375 cells” value in assay [7] was “no inhibition effect”. Moreover, the “changes of PARP-1” value in assay [8] is “changes of PARP-1 were also seen”.
Take “6-aminocaproic acid-RRRRRRRRR ([Ahx]RRRRRRRRR) [R9, cell-penetrating peptide (CPP)]”: in assay [9], the “fluorescence after entry into cells, differences between R9 group and other groups” value is “the most significant”.
Regarding “arsenic trioxide [ATO, reference compound]”, the “activity of A375 cells reduced by” value in assay [3] (5 μM ATO alone, 24 hrs) is reported as 40%. Further, the “cell growth inhibition rate” value in assay [3] (ATO alone, different doses (5, 10, 25, 50 μM), 48 hrs) is on record as “approximately 100%”. In assay [2] (pure ATO treatment group, 24 hrs), this substance returned an apoptosis rate of 24.69%.
